Measured values reported in article PMC11148045, “Structural basis for recognition of 26RFa by the pyroglutamylated RFamide peptide receptor” (Cell Discovery, 2024).
No end group written: not given here.

How the values were obtained:
QRFPR = details: cited from earlier work
Source text: cDNA encoding the precursor or orthologue of 26RFa is detected in vertebrates, from fish[16], and phasianidae, to mammals. In humans, 26RFa and its N-terminal extended mature peptide 43RFa are extracted from the human brain, and mRNA of QRFPR is detected in the hypothalamus, vestibular nuclei, and other areas of the central nervous system. QRFPR is also detected in some peripheral organs[18],[19]. Both 26RFa and 43RFa are endogenous ligands for QRFPR (GPR103)[4],[18]. The amino acid sequences of 26RFa are conserved among mammalian species, with 26RFa from rats being slightly mor ... || Considerable efforts have been dedicated to elucidating the recognition mechanism of 26RFa by QRFPR. […] This segment served as a molecular scaffold for the development of low molecular weight peptides with enhanced potency and increased stability[21],[28]. […] Globally, the 26RFa segment (Gly20–Phe24) leans to TM2, but is far from TMs 5–7, leaving a large portion of unoccupied space lined by TMs 5–7 (Fig. 3a). Two glycines (Gly20, Gly21) are compactly packed into a crevice composed of residues on ECL1, ECL2, and the N-terminus (Fig. 3a). They moderately impact 26RFa activity, as substit ... || (+ 2 further places)

KISS1R (WT) = target: T1, KISS1R (WT) (Homo sapiens, UniProt Q969F8); test: KP-10-induced calcium mobilization, wild-type receptor; format: cell-based; details: HEK293, Fluo-4, mean ± S.E.M., n ≥ 3
T1 construct: expressed in transfected cells; host or cells: HEK293, transient transfection by electroporation
T1 sequence (Q969F8 whole entry, species assumed): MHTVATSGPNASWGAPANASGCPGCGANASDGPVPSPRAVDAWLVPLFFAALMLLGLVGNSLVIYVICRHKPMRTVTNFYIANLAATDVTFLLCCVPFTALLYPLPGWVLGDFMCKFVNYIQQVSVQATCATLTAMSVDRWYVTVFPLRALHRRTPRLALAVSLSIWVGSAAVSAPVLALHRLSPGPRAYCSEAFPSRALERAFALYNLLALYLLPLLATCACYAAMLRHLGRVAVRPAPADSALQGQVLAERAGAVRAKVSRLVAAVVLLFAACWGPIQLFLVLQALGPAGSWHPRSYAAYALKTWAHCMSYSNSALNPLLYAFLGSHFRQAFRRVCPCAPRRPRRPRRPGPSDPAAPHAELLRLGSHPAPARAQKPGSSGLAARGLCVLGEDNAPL

KISS1R mutants = target: T2, KISS1R mutants (Homo sapiens, UniProt Q969F8, E193A/H309A/Q122A); test: KP-10-induced calcium mobilization, receptor mutants; format: cell-based; details: HEK293, Fluo-4, mean ± S.E.M., n ≥ 3
T2 construct: expressed in transfected cells; host or cells: HEK293, transient transfection by electroporation
T2 sequence (Q969F8 whole entry Q122A/E193A/H309A): as the sequence (Q969F8 whole entry, species assumed) above, with Q122A, E193A, H309A counted along it

NPY1R and NPY4R = details: cited from earlier work; for role of hydrogen bond of Tyr36 with Q^5.46 in activity: NPY1R and NPY4R
Source text: Specifically, Arg25 and Arg35 in 26RFa and NPY/PP are exposed to a conserved polar environment that includes residues E^45.52, T^5.39, and D/E^6.59 in QRFPR and NPYRs. However, subtle differences exist in the special binding interactions between these arginines and conserved polar residues (Fig. 4d–f). Side chains of Arg35 in NPY/PP form a conserved salt bridge with D^6.59 and a hydrogen bond with T^5.39 (NPY1R and NPY4R) or a salt bridge with E^45.52 (NPY2R) (Fig. 4e, f). In 26RFa, Arg25 retains its salt bridge with E203^45.52 but fails to build a salt bridge with E297^6.59 (Fig. 3b). It is p ... || Phe26 in 26RFa and Tyr36 in NPY/PP show distinct binding characteristics for QRFRP and NPYRs, respectively. […] (Fig. 4e). However, in NPY2R, this hydrogen bond is absent due to the substitution of glutamine with leucine at position 5.46, which lacks a hydrogen bond donor (Fig. 4c, f). Similarly, QRFPR also has a leucine at position 5.46, which cannot form a corresponding hydrogen bond with Phe26 in 26RFa. Furthermore, in contrast to the notable impact of Q^5.46 on the NP ...

PrRPR (WT) = target: T3, PrRPR (WT) (Homo sapiens, UniProt P49683); test: PrRP-20-induced calcium mobilization, wild-type receptor; format: cell-based; details: HEK293, Fluo-4, mean ± S.E.M., n ≥ 3
T3 construct: expressed in transfected cells; host or cells: HEK293, transient transfection by electroporation
T3 sequence (P49683 whole entry, species assumed): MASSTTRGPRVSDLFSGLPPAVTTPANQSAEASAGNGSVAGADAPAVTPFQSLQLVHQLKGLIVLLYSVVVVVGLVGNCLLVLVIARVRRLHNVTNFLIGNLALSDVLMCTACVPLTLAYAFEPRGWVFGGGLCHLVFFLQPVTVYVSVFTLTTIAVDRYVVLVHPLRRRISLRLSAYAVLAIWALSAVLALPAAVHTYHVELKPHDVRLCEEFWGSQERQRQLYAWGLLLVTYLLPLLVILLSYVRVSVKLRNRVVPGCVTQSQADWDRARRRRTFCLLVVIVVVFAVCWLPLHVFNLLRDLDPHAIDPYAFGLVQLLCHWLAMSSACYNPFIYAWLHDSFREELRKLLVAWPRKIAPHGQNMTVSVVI
Protocol: (§1) The gene encoding the WT QRFPR, PrPRR, KISS1R, NPFF1R, or NPFF2R was subcloned into the pcDNA3.0 vector with the addition of an N-terminal HA tag. All of the mutations used for functional studies were generated by QuickChange PCR and verified by DNA sequencing.
(§2) HEK293 cells were obtained from ATCC (Manassas, VA, USA) and cultured in DMEM supplemented with 10% (v/v) FBS, 100 mg/L penicillin, and 100 mg/L streptomycin in 5% CO2 at 37 °C. For transient transfection, ~2.5 × 10^6 cells were mixed with 2 µg plasmids in 200 µL transfection buffer, and electroporation was carried out with a Scientz-2C electroporation apparatus (Scientz Biotech, Ningbo, China). The experiments were carried out 24 h after transfection.
For QRFPR, PrRPR, and KISS1R, HEK293 cells transfected with WT receptor or its mutants were seeded at a density of 4 × 10^4 per well into 96-well culture plates and incubated for 24 h at 37 °C in 5% CO2. […] After washing, cells were added with 50 μL HBSS and incubated at room temperature for 10 min, then 25 μL agonist buffer was dispensed into the well using a FlexStation III microplate reader (Molecular Devices), and intracellular calcium change was recorded at an excitation wavelength of 485 nm and an emission wavelength of 525 nm. EC50 and Emax values for each curve were calculated by Prism 8.0 software (GraphPad Software).

PrRPR mutants = target: T4, PrRPR mutants (Homo sapiens, UniProt P49683, D302A/E213A/H321A/Q141A); test: PrRP-20-induced calcium mobilization, receptor mutants; format: cell-based; details: HEK293, Fluo-4, mean ± S.E.M., n ≥ 3
T4 construct: expressed in transfected cells; host or cells: HEK293, transient transfection by electroporation
T4 sequence (P49683 1-370 Q141A/E213A/D302A/H321A): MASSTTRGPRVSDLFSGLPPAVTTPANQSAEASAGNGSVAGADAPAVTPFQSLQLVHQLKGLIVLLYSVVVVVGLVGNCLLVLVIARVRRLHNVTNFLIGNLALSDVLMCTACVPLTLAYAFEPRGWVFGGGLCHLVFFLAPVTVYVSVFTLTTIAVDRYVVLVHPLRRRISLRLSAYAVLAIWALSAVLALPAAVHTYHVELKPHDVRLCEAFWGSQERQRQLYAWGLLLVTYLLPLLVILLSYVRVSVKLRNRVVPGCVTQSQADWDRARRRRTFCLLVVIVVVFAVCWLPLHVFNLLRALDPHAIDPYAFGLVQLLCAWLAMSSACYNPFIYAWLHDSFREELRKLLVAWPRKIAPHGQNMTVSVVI
Protocol: as §1, §2
For QRFPR, PrRPR, and KISS1R, HEK293 cells transfected with WT receptor or its mutants were seeded at a density of 4 × 10^4 per well into 96-well culture plates and incubated for 24 h at 37 °C in 5% CO2. For NPFF1R and NPFF2R, plasmids were transfected into HEK293 cells stably expressing Gα16. On the next day, cells were incubated with 2 μmol/L Fluo-4 AM in HBSS supplemented with 5.6 mmol/L D-glucose and 250 μmol/L sulfinpyrazone at 37 °C for 45 min. After washing, cells were added with 50 μL HBSS and incubated at room temperature for 10 min, then 25 μL agonist buffer was dispensed into the well using a FlexStation III microplate reader (Molecular Devices), and intracellular calcium change was recorded at an excitation wavelength of 485 nm and an emission wavelength of 525 nm. EC50 and Emax values for each curve were calculated by Prism 8.0 software (GraphPad Software).

26RFa (1–18): N-terminal segment of native 26RFa lacking the C-terminal octapeptide (QDEGSEATGFLPAAGEKT; QRF-amide; UniProt P83859 91-108, looked up, fragment)
ability to activate the receptor (QRFPR; 26RFa (1–18), lacks the C-terminal octapeptide): loses its ability to activate the receptor

26RFa from rats: 26RFa from rats; rat 26RFa (GenScript) used for the complex
potency, rat vs human 26RFa (QRFPR; calcium mobilization): slightly more potent than that from humans

CC(C)C[C@H](NC(=O)CNC(=O)[C@H](Cc1ccccc1)NC(=O)[C@H](CO)NC(=O)[C@H](CC(N)=O)NC(=O)[C@H](Cc1c[nH]c2ccccc12)NC(=O)[C@H](CC(N)=O)NC(=O)[C@@H](N)Cc1ccc(O)cc1)C(=O)N[C@@H](CCCNC(=N)N)C(=O)N[C@@H](Cc1ccccc1)C(N)=O [KP-10]
EC50 (KISS1R (WT)): 4.27 nM
Emax (KISS1R (WT)): 100 ± 1.2%
Emax (KISS1R mutants; HEK293, KISS1R E193^45.52A): 126 ± 6.2%
Emax (KISS1R mutants; HEK293, KISS1R H309^7.39A): 89.6 ± 1%
Emax (KISS1R mutants; HEK293, KISS1R Q122^3.32A): 12.8 ± 0.76%
EC50 (KISS1R mutants; KISS1R E193^45.52A): 10 nM
EC50 (KISS1R mutants; KISS1R H309^7.39A): 17.4 nM
EC50 (KISS1R mutants; KISS1R Q122^3.32A): 5.13 nM

Neuropeptide Y [NPY]
role of hydrogen bond of Tyr36 with Q^5.46 in activity (NPY1R and NPY4R): crucial for NPY/PP activity
role of amide-surrounding residues (C^2.57, T^2.61, Q^3.32, Q/H^7.39) in activity (NPY1R and NPY4R): critical for 26RFa and NPY/PP activities

TPDINPAWYASRGIRPVGRF-NH2 [PrRP-20, prolactin-releasing peptide]
EC50 (PrRPR (WT)): 1.1 nM
Emax (PrRPR (WT)): 100 ± 3.9%
Emax (PrRPR mutants; HEK293, PrRPR D302^6.59A): 124 ± 8.9%
Emax (PrRPR mutants; HEK293, PrRPR E213^45.52A): 27.7 ± 0.37%
Emax (PrRPR mutants; HEK293, PrRPR H321^7.39A): 19.7 ± 0.75%
Emax (PrRPR mutants; HEK293, PrRPR Q141^3.32A): 49.2 ± 1.2%
EC50 (PrRPR mutants; PrRPR D302^6.59A): 11.2 nM
EC50 (PrRPR mutants; PrRPR E213^45.52A): 115 nM
EC50 (PrRPR mutants; PrRPR H321^7.39A): 14.8 nM
EC50 (PrRPR mutants; PrRPR Q141^3.32A): 1.05 nM

pancreatic polypeptide [PP]
role of hydrogen bond of Tyr36 with Q^5.46 in activity (NPY1R and NPY4R): crucial for NPY/PP activity
role of amide-surrounding residues (C^2.57, T^2.61, Q^3.32, Q/H^7.39) in activity (NPY1R and NPY4R): critical for 26RFa and NPY/PP activities
